Measured values reported in ChEMBL document CHEMBL1933058, “5-(2-amino-pyrimidin-4-yl)-1H-pyrrole and 2-(2-amino-pyrimidin-4-yl)-1,5,6,7-tetrahydro-pyrrolo[3,2-c]pyridin-4-one derivatives as new classes of selective and orally available Polo-like kinase 1 inhibitors” (Bioorg Med Chem Lett, 2012).
≈ marks a conversion by molar mass, not a printed value.

How the values were obtained:
[1] = molecular target: Serine/threonine-protein kinase PLK2 (Homo sapiens, UniProt Q9NYY3); assay: Inhibition of PLK2
[2] = molecular target: Serine/threonine-protein kinase PLK3 (Homo sapiens, UniProt Q9H4B4); assay: Inhibition of PLK3
[3] = molecular target: Cyclin-dependent kinase 2/cyclin A (Homo sapiens, UniProt P24941); assay: Inhibition of CDK2/cyclin A; type: protein-complex assay
[4] = molecular target: T1, Aurora kinase A (Homo sapiens, UniProt O14965); assay: Inhibition of Aurora-A
T1 sequence (O14965 whole entry): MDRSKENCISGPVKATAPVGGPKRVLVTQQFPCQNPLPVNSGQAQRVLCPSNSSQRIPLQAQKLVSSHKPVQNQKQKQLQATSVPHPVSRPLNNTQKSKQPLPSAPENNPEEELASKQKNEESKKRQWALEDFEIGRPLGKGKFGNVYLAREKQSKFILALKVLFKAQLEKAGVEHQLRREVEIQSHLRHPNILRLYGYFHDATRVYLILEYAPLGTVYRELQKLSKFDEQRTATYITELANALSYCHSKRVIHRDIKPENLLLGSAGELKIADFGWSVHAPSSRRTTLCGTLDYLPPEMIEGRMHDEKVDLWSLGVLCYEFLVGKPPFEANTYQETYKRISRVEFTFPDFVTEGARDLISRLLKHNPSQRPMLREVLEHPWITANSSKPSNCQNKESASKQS

[5] = system: A2780; assay: Antiproliferative activity against human A2780 cells; type: functional, cell-based
[6] = Inhibition of CK2
[7] = molecular target: Tyrosine-protein kinase ABL1 (Homo sapiens, UniProt P00519); assay: Inhibition of c-ABL
[8] = molecular target: RAC-alpha serine/threonine-protein kinase (Homo sapiens, UniProt P31749); assay: Inhibition of AKT1
[9] = molecular target: Aurora kinase B (Homo sapiens, UniProt Q96GD4); assay: Inhibition of Aurora-B
[10] = molecular target: Protein-tyrosine kinase 6 (Homo sapiens, UniProt Q13882); assay: Inhibition of BRK
[11] = molecular target: Cell division cycle 7-related protein kinase (Homo sapiens, UniProt O00311); assay: Inhibition of CDC7
[12] = molecular target: Cyclin-dependent kinase 1/cyclin B1 (Homo sapiens, UniProt P06493); assay: Inhibition of CDK1/cyclin B; type: protein-complex assay
[13] = molecular target: Cyclin-dependent kinase 2/cyclin E1 (Homo sapiens, UniProt P24941); assay: Inhibition of CDK2/cyclin E; type: protein-complex assay
[14] = molecular target: Cyclin-dependent kinase 4/cyclin D1 (Homo sapiens, UniProt P11802); assay: Inhibition of CDK4/cyclin D1; type: protein-complex assay
[15] = molecular target: Cyclin-dependent kinase 5 activator 1 (Homo sapiens, UniProt Q15078); assay: Inhibition of CDK5/P25
[16] = molecular target: Serine/threonine-protein kinase Chk1 (Homo sapiens, UniProt O14757); assay: Inhibition of CHK1
[17] = molecular target: Epidermal growth factor receptor (Homo sapiens, UniProt P04626+P00533+Q15303+P21860); assay: Inhibition of EGFR1; type: protein assay
[18] = molecular target: Mitogen-activated protein kinase 1 (Homo sapiens, UniProt P28482); assay: Inhibition of ERK2
[19] = molecular target: Fibroblast growth factor receptor 1 (Homo sapiens, UniProt P11362); assay: Inhibition of FGFR1
[20] = molecular target: Glycogen synthase kinase-3 beta (Homo sapiens, UniProt P49841); assay: Inhibition of GSK3-beta
[21] = molecular target: Insulin-like growth factor 1 receptor (Homo sapiens, UniProt P08069); assay: Inhibition of IGFR1
[22] = molecular target: Inhibitor of nuclear factor kappa-B kinase subunit beta (Homo sapiens, UniProt O14920); assay: Inhibition of IKK2
[23] = molecular target: Insulin receptor (Homo sapiens, UniProt P06213); assay: Inhibition of IR
Chain of Insulin receptor (P06213 28-758 limits assumed): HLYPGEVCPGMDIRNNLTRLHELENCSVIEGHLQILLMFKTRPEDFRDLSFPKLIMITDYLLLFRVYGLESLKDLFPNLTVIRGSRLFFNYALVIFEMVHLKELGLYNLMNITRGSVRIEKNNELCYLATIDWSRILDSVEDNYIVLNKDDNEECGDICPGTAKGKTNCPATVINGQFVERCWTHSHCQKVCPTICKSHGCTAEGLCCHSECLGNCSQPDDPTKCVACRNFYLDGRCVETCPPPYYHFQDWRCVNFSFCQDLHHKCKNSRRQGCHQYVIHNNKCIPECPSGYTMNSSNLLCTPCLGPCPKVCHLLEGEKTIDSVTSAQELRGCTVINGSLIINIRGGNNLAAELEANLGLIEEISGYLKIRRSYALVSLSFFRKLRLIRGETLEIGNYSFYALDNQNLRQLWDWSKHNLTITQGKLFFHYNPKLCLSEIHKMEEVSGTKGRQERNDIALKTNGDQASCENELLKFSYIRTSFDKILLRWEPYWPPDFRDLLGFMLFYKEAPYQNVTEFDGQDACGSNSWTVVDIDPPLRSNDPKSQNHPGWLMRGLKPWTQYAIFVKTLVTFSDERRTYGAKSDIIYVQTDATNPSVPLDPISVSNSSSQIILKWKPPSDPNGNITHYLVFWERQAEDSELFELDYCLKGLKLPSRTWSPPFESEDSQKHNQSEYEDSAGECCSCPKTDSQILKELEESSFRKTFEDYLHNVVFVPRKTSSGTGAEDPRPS
Chain of Insulin receptor (P06213 763-1382 limits assumed): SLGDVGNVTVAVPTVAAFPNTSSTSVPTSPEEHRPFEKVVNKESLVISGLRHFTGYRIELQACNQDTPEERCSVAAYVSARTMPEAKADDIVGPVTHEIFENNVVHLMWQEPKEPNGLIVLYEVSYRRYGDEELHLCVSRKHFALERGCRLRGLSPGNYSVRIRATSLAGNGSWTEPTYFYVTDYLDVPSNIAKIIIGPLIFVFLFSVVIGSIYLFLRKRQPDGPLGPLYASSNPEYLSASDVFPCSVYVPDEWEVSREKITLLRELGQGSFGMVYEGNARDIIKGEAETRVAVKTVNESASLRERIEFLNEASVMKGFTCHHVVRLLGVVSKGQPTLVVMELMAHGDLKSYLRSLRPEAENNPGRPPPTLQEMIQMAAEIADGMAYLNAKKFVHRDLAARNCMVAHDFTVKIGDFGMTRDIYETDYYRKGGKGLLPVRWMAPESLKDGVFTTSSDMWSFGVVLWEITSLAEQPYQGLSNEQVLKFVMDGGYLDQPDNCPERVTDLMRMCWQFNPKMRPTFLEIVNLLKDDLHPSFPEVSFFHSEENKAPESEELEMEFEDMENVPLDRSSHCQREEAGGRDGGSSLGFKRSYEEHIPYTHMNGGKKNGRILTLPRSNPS

[24] = molecular target: Tyrosine-protein kinase JAK2 (Homo sapiens, UniProt O60674); assay: Inhibition of JAK2
[25] = molecular target: Mast/stem cell growth factor receptor Kit (Homo sapiens, UniProt P10721); assay: Inhibition of KIT
[26] = molecular target: Tyrosine-protein kinase Lck (Homo sapiens, UniProt P06239); assay: Inhibition of LCK
[27] = molecular target: MAP kinase-activated protein kinase 2 (Homo sapiens, UniProt P49137); assay: Inhibition of MAP-KAPK2
[28] = molecular target: Hepatocyte growth factor receptor (Homo sapiens, UniProt P08581); assay: Inhibition of MET
Chain of Hepatocyte growth factor receptor (P08581 whole entry): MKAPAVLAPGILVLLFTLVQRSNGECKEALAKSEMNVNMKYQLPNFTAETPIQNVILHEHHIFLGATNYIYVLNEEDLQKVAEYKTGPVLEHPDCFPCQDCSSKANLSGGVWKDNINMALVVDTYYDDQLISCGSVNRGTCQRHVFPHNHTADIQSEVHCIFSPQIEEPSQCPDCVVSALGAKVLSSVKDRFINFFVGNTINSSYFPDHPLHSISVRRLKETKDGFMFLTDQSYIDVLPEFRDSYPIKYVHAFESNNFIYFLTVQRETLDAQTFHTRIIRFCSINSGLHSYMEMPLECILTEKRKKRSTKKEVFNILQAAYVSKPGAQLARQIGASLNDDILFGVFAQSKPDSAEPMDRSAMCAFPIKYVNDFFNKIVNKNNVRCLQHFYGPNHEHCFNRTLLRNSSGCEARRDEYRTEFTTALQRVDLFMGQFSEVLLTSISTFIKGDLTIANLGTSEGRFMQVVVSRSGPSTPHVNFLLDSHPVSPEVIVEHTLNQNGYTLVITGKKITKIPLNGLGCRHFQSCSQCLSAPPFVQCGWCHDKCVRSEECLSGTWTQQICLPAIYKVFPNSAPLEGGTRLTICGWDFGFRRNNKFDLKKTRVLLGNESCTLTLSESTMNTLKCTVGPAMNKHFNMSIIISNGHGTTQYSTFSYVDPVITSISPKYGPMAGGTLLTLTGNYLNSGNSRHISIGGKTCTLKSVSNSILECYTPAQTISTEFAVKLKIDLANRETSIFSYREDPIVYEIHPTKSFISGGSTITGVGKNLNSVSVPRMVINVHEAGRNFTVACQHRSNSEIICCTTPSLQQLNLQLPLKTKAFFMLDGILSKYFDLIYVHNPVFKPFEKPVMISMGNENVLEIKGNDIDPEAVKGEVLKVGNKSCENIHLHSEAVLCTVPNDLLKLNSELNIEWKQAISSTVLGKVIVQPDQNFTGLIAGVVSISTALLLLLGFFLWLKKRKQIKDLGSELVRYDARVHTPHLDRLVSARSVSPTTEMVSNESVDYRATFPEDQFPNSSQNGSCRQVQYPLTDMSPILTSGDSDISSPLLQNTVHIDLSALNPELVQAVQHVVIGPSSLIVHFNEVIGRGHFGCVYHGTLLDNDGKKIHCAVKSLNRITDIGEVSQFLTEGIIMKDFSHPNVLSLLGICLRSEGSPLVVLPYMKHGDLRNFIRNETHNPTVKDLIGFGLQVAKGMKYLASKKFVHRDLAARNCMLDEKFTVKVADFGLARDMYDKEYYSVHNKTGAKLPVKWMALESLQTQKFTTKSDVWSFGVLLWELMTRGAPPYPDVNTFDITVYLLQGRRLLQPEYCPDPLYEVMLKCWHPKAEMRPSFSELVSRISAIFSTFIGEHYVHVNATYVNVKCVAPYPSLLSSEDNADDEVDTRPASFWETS

[29] = molecular target: Serine/threonine-protein kinase 26 (Homo sapiens, UniProt Q9P289); assay: Inhibition of MST4
Chain of Serine/threonine-protein kinase 26 (Q9P289 whole entry): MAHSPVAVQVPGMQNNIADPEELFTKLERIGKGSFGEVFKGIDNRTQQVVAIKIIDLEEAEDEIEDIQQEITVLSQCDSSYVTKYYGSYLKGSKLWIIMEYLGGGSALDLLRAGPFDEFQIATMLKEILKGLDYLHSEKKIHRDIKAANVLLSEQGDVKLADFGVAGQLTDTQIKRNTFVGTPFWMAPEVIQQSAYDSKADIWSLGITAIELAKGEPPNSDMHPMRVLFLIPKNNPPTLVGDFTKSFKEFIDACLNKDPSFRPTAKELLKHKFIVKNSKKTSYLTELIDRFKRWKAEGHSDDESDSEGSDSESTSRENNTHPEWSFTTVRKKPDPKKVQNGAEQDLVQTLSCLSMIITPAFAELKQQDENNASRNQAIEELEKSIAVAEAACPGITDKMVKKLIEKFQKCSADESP

[30] = molecular target: Serine/threonine-protein kinase Nek6 (Homo sapiens, UniProt Q9HC98); assay: Inhibition of NEK6
Chain of Serine/threonine-protein kinase Nek6 (Q9HC98 whole entry): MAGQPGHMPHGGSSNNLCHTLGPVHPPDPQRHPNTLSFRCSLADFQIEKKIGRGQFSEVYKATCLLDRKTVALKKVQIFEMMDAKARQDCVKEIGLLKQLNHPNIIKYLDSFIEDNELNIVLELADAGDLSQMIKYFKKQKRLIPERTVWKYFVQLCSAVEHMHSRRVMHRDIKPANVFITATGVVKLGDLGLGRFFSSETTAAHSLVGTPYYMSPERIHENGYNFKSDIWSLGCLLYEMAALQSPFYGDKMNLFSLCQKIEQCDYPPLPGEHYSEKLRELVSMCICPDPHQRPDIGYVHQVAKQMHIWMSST

[31] = Inhibition of NIM
[32] = molecular target: Mitogen-activated protein kinase 14 (Homo sapiens, UniProt Q16539); assay: Inhibition of P38alpha
[33] = molecular target: Serine/threonine-protein kinase PAK 4 (Homo sapiens, UniProt O96013); assay: Inhibition of PAK4
[34] = Inhibition of PDGFR
[35] = molecular target: cAMP-dependent protein kinase catalytic subunit alpha (Homo sapiens, UniProt P17612); assay: Inhibition of PKAalpha
[36] = molecular target: Protein kinase C beta type (Homo sapiens, UniProt P05771); assay: Inhibition of PKCbeta
[37] = molecular target: Proto-oncogene tyrosine-protein kinase receptor Ret (Homo sapiens, UniProt P07949); assay: Inhibition of RET
[38] = Inhibition of SULU1
[39] = molecular target: High affinity nerve growth factor receptor (Homo sapiens, UniProt P04629); assay: Inhibition of TRKA
[40] = molecular target: Vascular endothelial growth factor receptor 2 (Homo sapiens, UniProt P35968); assay: Inhibition of VEGFR2
Chain of Vascular endothelial growth factor receptor 2 (P35968 whole entry): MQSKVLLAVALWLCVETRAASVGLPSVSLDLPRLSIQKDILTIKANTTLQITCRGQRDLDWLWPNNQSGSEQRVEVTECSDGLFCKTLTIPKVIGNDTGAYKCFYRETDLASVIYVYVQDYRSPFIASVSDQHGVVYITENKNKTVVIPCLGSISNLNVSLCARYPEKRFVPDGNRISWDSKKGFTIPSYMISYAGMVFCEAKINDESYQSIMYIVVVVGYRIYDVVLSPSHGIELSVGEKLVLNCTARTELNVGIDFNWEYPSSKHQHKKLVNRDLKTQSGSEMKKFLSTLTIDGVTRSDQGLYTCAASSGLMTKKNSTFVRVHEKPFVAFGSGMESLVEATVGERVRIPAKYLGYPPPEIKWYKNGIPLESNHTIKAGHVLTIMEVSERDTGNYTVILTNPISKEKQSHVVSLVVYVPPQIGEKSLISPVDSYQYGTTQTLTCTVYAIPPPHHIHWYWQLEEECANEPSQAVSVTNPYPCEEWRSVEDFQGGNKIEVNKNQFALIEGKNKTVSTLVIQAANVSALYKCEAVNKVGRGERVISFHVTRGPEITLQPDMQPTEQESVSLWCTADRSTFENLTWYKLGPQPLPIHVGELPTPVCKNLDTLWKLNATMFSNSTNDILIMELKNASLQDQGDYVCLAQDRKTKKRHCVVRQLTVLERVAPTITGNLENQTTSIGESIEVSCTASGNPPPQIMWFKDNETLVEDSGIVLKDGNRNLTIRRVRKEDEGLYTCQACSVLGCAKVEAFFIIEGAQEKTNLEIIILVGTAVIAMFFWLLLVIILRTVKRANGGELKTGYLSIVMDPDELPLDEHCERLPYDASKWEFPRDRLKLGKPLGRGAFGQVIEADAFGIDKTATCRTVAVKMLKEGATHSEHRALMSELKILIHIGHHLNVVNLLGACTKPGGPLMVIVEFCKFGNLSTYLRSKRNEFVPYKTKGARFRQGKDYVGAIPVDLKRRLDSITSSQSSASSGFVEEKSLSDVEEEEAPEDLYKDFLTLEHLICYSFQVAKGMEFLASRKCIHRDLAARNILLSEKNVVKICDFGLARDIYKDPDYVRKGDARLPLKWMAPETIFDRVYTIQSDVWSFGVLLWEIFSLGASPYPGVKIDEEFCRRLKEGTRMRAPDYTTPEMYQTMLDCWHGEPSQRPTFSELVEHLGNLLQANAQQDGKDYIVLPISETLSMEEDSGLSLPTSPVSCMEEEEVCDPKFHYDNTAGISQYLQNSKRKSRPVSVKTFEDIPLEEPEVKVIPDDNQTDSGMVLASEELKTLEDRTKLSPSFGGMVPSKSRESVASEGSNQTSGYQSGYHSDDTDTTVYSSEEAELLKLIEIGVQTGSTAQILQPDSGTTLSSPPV

[41] = molecular target: Vascular endothelial growth factor receptor 3 (Homo sapiens, UniProt P35916); assay: Inhibition of VEGFR3
[42] = system: A-375; assay: Antiproliferative activity against human A375 cells; type: functional, cell-based
[43] = system: HCT-116; assay: Antiproliferative activity against human HCT116 cells; type: functional, cell-based
[44] = system: LNCaP; assay: Antiproliferative activity against human LNCAP cells; type: functional, cell-based
[45] = system: MDA-MB-468; assay: Antiproliferative activity against human MDA-MB-468 cells; type: functional, cell-based
[46] = system: K562; assay: Antiproliferative activity against human K562 cells; type: functional, cell-based
[47] = system: MOLM-13; assay: Antiproliferative activity against human MOLM13 cells; type: functional, cell-based
[48] = system: MOLT-4; assay: Antiproliferative activity against human MOLT4 cells; type: functional, cell-based
[49] = Antiproliferative activity against human SUP-M2 cells; type: functional, cell-based
[50] = system: Caco-2; assay: Apparent permeability across human Caco2 cells; type: ADME, cell-based
[51] = Apparent permeability of the compound by PAMPA; type: ADME
[52] = Intrinsic clearance in rat hepatocytes at 1 uM; type: ADME, cell-based, Liver, Hepatocyte; details: read-out: CLH
[53] = Intrinsic clearance in human liver microsomes at 1 uM; type: ADME, Microsome; details: read-out: CLH
[54] = Solubility of the compound at pH 7; type: physicochemical; details: buffer
[55] = Tmax in Nu/Nu Balb Harlan mouse at 10 mg/kg, po; type: ADME, organism-based; set-up: dose 10 mg/kg, route oral; details: in vivo

CN1CCN(c2ccc(OC(F)(F)F)c(Nc3nccc(-c4cc(C(N)=O)cn4C)n3)c2)CC1
IC50 [1]: > 10 µM
IC50 [2]: > 10 µM
IC50 [3]: > 10 µM
IC50 [4]: > 10 µM
IC50 [5]: 0.36 µM
IC50 [6]: 0.951 µM
IC50 [7]: > 10 µM
IC50 [8]: > 10 µM
IC50 [9]: > 10 µM
IC50 [10]: > 10 µM
IC50 [11]: > 10 µM
IC50 [12]: > 10 µM
IC50 [13]: > 10 µM
IC50 [14]: > 10 µM
IC50 [15]: > 10 µM
IC50 [16]: > 10 µM
IC50 [17]: > 10 µM
IC50 [18]: > 10 µM
IC50 [19]: > 10 µM
IC50 [20]: > 10 µM
IC50 [21]: > 10 µM
IC50 [22]: > 10 µM
IC50 [23]: > 10 µM
IC50 [24]: > 10 µM
IC50 [25]: > 10 µM
IC50 [26]: > 10 µM
IC50 [27]: > 10 µM
IC50 [28]: > 10 µM
IC50 [29]: > 10 µM
IC50 [30]: > 10 µM
IC50 [31]: > 10 µM
IC50 [32]: > 10 µM
IC50 [33]: > 10 µM
IC50 [34]: > 10 µM
IC50 [35]: > 10 µM
IC50 [36]: > 10 µM
IC50 [37]: > 10 µM
IC50 [38]: > 10 µM
IC50 [39]: > 10 µM
IC50 [40]: > 10 µM
IC50 [41]: > 10 µM
IC50 [42]: 0.386 µM
IC50 [43]: 0.52 µM
IC50 [44]: 0.28 µM
IC50 [45]: 0.624 µM
IC50 [46]: 0.59 µM
IC50 [47]: 0.201 µM
IC50 [48]: 0.253 µM
IC50 [49]: 0.647 µM
Papp [50]: permeable
Papp [51]: 50 ×10⁻⁶ cm/s
CLint scaled at 1 µM [52]: 408 mL/min/kg
CLint scaled at 1 µM [53]: 14.9 mL/min/kg
solubility [54]: 174 µM (≈ 82.7 µg/mL)
Tmax [55]: 30 min
